According to the NIST ThermoML archive (doi:10.1021/je900732r):
Numbers after ± are expanded uncertainties.

Experiment: mn = molality of the nth substance listed, in mol/kg
Conditions: 101 kPa, Liquid; for speed of sound: Pulse-echo method

## [Co+2].[O-][Cl+3]([O-])([O-])[O-].[O-][Cl+3]([O-])([O-])[O-] [cobalt(II) perchlorate] + CO
283.15 K, m1 = 0.04954
  mass density: 810.666 ± 0.47 kg/m3
283.15 K, m1 = 0.0652
  mass density: 813.871 ± 0.47 kg/m3
283.15 K, m1 = 0.08043
  mass density: 816.972 ± 0.46 kg/m3
283.15 K, m1 = 0.09601
  mass density: 820.184 ± 0.46 kg/m3
283.15 K, m1 = 0.1106
  mass density: 823.205 ± 0.45 kg/m3
283.15 K, m1 = 0.1255
  mass density: 826.259 ± 0.45 kg/m3
283.15 K, m1 = 0.157
  mass density: 832.839 ± 0.44 kg/m3
283.15 K, m1 = 0.1876
  mass density: 839.345 ± 0.44 kg/m3
283.15 K, m1 = 0.2171
  mass density: 845.636 ± 0.43 kg/m3
283.15 K, m1 = 0.2464
  mass density: 851.879 ± 0.42 kg/m3
283.15 K, m1 = 0.2747
  mass density: 858.053 ± 0.42 kg/m3
283.15 K, m1 = 0.3036
  mass density: 864.446 ± 0.41 kg/m3
288.15 K, m1 = 0.04954
  mass density: 806.009 ± 0.48 kg/m3
288.15 K, m1 = 0.0652
  mass density: 809.222 ± 0.47 kg/m3
288.15 K, m1 = 0.08043
  mass density: 812.325 ± 0.47 kg/m3
288.15 K, m1 = 0.09601
  mass density: 815.542 ± 0.46 kg/m3
288.15 K, m1 = 0.1106
  mass density: 818.568 ± 0.46 kg/m3
288.15 K, m1 = 0.1255
  mass density: 821.625 ± 0.46 kg/m3
288.15 K, m1 = 0.157
  mass density: 828.214 ± 0.45 kg/m3
288.15 K, m1 = 0.1876
  mass density: 834.726 ± 0.44 kg/m3
288.15 K, m1 = 0.2171
  mass density: 841.028 ± 0.43 kg/m3
288.15 K, m1 = 0.2464
  mass density: 847.275 ± 0.43 kg/m3
288.15 K, m1 = 0.2747
  mass density: 853.458 ± 0.42 kg/m3
288.15 K, m1 = 0.3036
  mass density: 859.854 ± 0.41 kg/m3
293.15 K, m1 = 0.04954
  mass density: 801.334 ± 0.48 kg/m3
293.15 K, m1 = 0.0652
  mass density: 804.551 ± 0.48 kg/m3
293.15 K, m1 = 0.08043
  mass density: 807.661 ± 0.47 kg/m3
293.15 K, m1 = 0.09601
  mass density: 810.881 ± 0.47 kg/m3
293.15 K, m1 = 0.1106
  mass density: 813.913 ± 0.47 kg/m3
293.15 K, m1 = 0.1255
  mass density: 816.975 ± 0.46 kg/m3
293.15 K, m1 = 0.157
  mass density: 823.572 ± 0.46 kg/m3
293.15 K, m1 = 0.1876
  mass density: 830.096 ± 0.45 kg/m3
293.15 K, m1 = 0.2171
  mass density: 836.402 ± 0.44 kg/m3
293.15 K, m1 = 0.2464
  mass density: 842.656 ± 0.43 kg/m3
293.15 K, m1 = 0.2747
  mass density: 848.847 ± 0.43 kg/m3
293.15 K, m1 = 0.3036
  mass density: 855.253 ± 0.42 kg/m3
298.15 K, m1 = 0.04954
  speed of sound: 1108.2 ± 0.6 m/s
  mass density: 796.648 ± 0.49 kg/m3
298.15 K, m1 = 0.0652
  speed of sound: 1110.5 ± 0.6 m/s
  mass density: 799.871 ± 0.48 kg/m3
298.15 K, m1 = 0.08043
  speed of sound: 1112.6 ± 0.6 m/s
  mass density: 802.983 ± 0.48 kg/m3
298.15 K, m1 = 0.09601
  speed of sound: 1114.6 ± 0.61 m/s
  mass density: 806.21 ± 0.48 kg/m3
298.15 K, m1 = 0.1106
  speed of sound: 1116.9 ± 0.61 m/s
  mass density: 809.247 ± 0.47 kg/m3
298.15 K, m1 = 0.1255
  speed of sound: 1118.6 ± 0.61 m/s
  mass density: 812.313 ± 0.47 kg/m3
298.15 K, m1 = 0.157
  speed of sound: 1122.7 ± 0.62 m/s
  mass density: 818.918 ± 0.46 kg/m3
298.15 K, m1 = 0.1876
  speed of sound: 1127 ± 0.62 m/s
  mass density: 825.452 ± 0.46 kg/m3
298.15 K, m1 = 0.2171
  speed of sound: 1131 ± 0.63 m/s
  mass density: 831.765 ± 0.45 kg/m3
298.15 K, m1 = 0.2464
  speed of sound: 1135 ± 0.63 m/s
  mass density: 838.024 ± 0.44 kg/m3
298.15 K, m1 = 0.2747
  speed of sound: 1138.9 ± 0.64 m/s
  mass density: 844.226 ± 0.43 kg/m3
298.15 K, m1 = 0.3036
  speed of sound: 1143 ± 0.65 m/s
  mass density: 850.642 ± 0.43 kg/m3
303.15 K, m1 = 0.04954
  mass density: 791.945 ± 0.5 kg/m3
303.15 K, m1 = 0.0652
  mass density: 795.174 ± 0.49 kg/m3
303.15 K, m1 = 0.08043
  mass density: 798.285 ± 0.49 kg/m3
303.15 K, m1 = 0.09601
  mass density: 801.517 ± 0.48 kg/m3
303.15 K, m1 = 0.1106
  mass density: 804.564 ± 0.48 kg/m3
303.15 K, m1 = 0.1255
  mass density: 807.634 ± 0.48 kg/m3
303.15 K, m1 = 0.157
  mass density: 814.251 ± 0.47 kg/m3
303.15 K, m1 = 0.1876
  mass density: 820.793 ± 0.46 kg/m3
303.15 K, m1 = 0.2171
  mass density: 827.115 ± 0.45 kg/m3
303.15 K, m1 = 0.2464
  mass density: 833.388 ± 0.45 kg/m3
303.15 K, m1 = 0.2747
  mass density: 839.592 ± 0.44 kg/m3
303.15 K, m1 = 0.3036
  mass density: 846.019 ± 0.43 kg/m3
308.15 K, m1 = 0.04954
  mass density: 787.216 ± 0.5 kg/m3
308.15 K, m1 = 0.0652
  mass density: 790.456 ± 0.5 kg/m3
308.15 K, m1 = 0.08043
  mass density: 793.568 ± 0.49 kg/m3
308.15 K, m1 = 0.09601
  mass density: 796.812 ± 0.49 kg/m3
308.15 K, m1 = 0.1106
  mass density: 799.855 ± 0.49 kg/m3
308.15 K, m1 = 0.1255
  mass density: 802.929 ± 0.48 kg/m3
308.15 K, m1 = 0.157
  mass density: 809.557 ± 0.48 kg/m3
308.15 K, m1 = 0.1876
  mass density: 816.116 ± 0.47 kg/m3
308.15 K, m1 = 0.2171
  mass density: 822.438 ± 0.46 kg/m3
308.15 K, m1 = 0.2464
  mass density: 828.73 ± 0.45 kg/m3
308.15 K, m1 = 0.2747
  mass density: 834.938 ± 0.45 kg/m3
308.15 K, m1 = 0.3036
  mass density: 841.375 ± 0.44 kg/m3
313.15 K, m1 = 0.04954
  mass density: 782.455 ± 0.51 kg/m3
313.15 K, m1 = 0.0652
  mass density: 785.712 ± 0.51 kg/m3
313.15 K, m1 = 0.08043
  mass density: 788.838 ± 0.5 kg/m3
313.15 K, m1 = 0.09601
  mass density: 792.084 ± 0.5 kg/m3
313.15 K, m1 = 0.1106
  mass density: 795.128 ± 0.49 kg/m3
313.15 K, m1 = 0.1255
  mass density: 798.211 ± 0.49 kg/m3
313.15 K, m1 = 0.157
  mass density: 804.844 ± 0.48 kg/m3
313.15 K, m1 = 0.1876
  mass density: 811.415 ± 0.47 kg/m3
313.15 K, m1 = 0.2171
  mass density: 817.746 ± 0.47 kg/m3
313.15 K, m1 = 0.2464
  mass density: 824.046 ± 0.46 kg/m3
313.15 K, m1 = 0.2747
  mass density: 830.254 ± 0.45 kg/m3
313.15 K, m1 = 0.3036
  mass density: 836.709 ± 0.45 kg/m3
